According to paper PMC10385850, “Modified Hederagenin Derivatives Demonstrate Ex Vivo Anthelmintic Activity against Fasciola hepatica” (Pharmaceutics, 2023):
“And” between values parts separate entries of the source, which are not always exact repeats. Equal entries are not always repeated. Where two headings read alike, the source gives them in different places.

How the values were obtained:
F. hepatica = test system: F. hepatica; set-up: method as in PMID 4034744; settings: cited from earlier work
[1] = test system: F. hepatica newly excysted juveniles (NEJs), Italian strain; assay: Ex vivo screen against newly excysted juveniles (NEJs), phenotype and motility scoring; assay type: cell-based, Fasciola hepatica; settings: 10 µM
Outline: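 Newly excysted juveniles of the Italian strain of F. hepatica were obtained by excysting metacercariae and exposed ex vivo to test compounds at 10 μM final concentration in 0.1% DMSO. Controls were 0.1% DMSO (negative) and 10 μM TCBZ in 0.1% DMSO (positive). Motility was scored from 1 (good/normal) to 5 (no movement), and ultrastructural phenotype changes were scored with an established matrix.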

[2] = test system: wild strain adult F. hepatica; assay: Ex vivo motility assay on adult liver flukes (wild strain); assay type: cell-based, Fasciola hepatica; settings: 40 µM
Outline: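 Wild-strain adult F. hepatica of unknown provenance (n = 4 per condition) were exposed ex vivo to 40 µM compound in 0.4% DMSO for 72 h. Motility was scored from 1 (normal) to 6 (no movement/dead).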

[3] = test system: immature F. hepatica flukes (Italian strain); assay: Ex vivo motility assay on immature liver flukes (Italian strain), single concentration and dose response; assay type: cell-based, Fasciola hepatica
[4] = test system: adult F. hepatica flukes (Italian strain); assay: Ex vivo dose response motility assay on adult liver flukes (Italian strain); assay type: cell-based, Fasciola hepatica; settings: for EC50: Fasciola hepatica, adult flukes, motility
Description: The collection, ex vivo culturing and screening of adult liver fluke (Italian strain; n = 3/condition) was previously described. Dose response assays (40 µM, 13.3 µM and 4.4 µM) were conducted for MC014, MC042, MC035, MC055 and MC062 with motility scores recorded at 24, 48 and 72 h (Table S6).

[5] = MTT cell viability assay on MDBK cells; assay type: cell-based, bovine; settings: bovine, MDBK cells (Madin–Darby bovine kidney); MDBK cells, MTT, 24 h exposure; read-out: CC50 with 95% CI on MDBK cells (cytotoxicity)
Description: MTT cell viability assays were performed on Madin–Darby bovine kidney (MDBK cells) for the five selected hederagenin derivatives (MC014, MC035, MC042, MC055 and MC062) using final concentrations of 100 μM, 75 μM, 50 μM, 25 μM, 10 μM, 5 μM and 1 μM (in 1% DMSO). Negative (1% v/v Triton X-100, Sigma-Aldrich, UK) and positive (1% v/v DMSO or media only) controls were included. The protocol was followed as previously described. Absolute EC50 values were calculated from the corrected absorbance of replicates by non-linear regression, after log transformation of concentrations and data normalization (where DMSO values represents 0% inhibition and TX-100 values represent 100% inhibition) using GrapPad Prism 8.

C[C@@H]1O[C@@H](O[C@H]2[C@H](O[C@H]3CC[C@@]4(C)[C@@H](CC[C@]5(C)[C@@H]4CC=C4[C@@H]6CC(C)(C)CC[C@]6(C(=O)O)CC[C@]45C)[C@]3(C)CO)OC[C@H](O)[C@@H]2O)[C@H](O)[C@H](O)[C@H]1O [α-Hederin]
Activity against F. hepatica, in words (F. hepatica): lethal activity

CC1(C)CC[C@]2(NC(=O)N3CCOCC3)CC[C@]3(C)C(=CCC4[C@@]5(C)CC[C@@H]6OC(C)(C)OC[C@@]6(C)C5CC[C@]43C)C2C1 (stereo partly drawn) [MC042, N-((4aR,6aR,6bS,8aS,14bR,16aS)-2,2,4a,6a,6b,11,11,14b-Octamethyl-4a,5,6,6a,6b,7,8,9,10,11,12,12a, 14,14a,14b,15,16,16a-octadecahydro-4H-piceno[3,4-d][1,3]dioxin-8a(4bH)-yl)-morpholine-4-carboxamide]
Average motility of 25 NEJs with 95% CI, 24 hours ([1]; 24 h, motility score 1 good/normal to 5 no movement): 5.00 (5.0;5.0)
Average phenotype of 25 NEJs with 95% CI, 24 hours ([1]; 24 h, ultrastructure score 1 normal to 6 dead or dissolved): 6.00 (6.0;6.0)
Average motility of 25 NEJs with 95% CI, 48 hours ([1]; 48 h, motility score 1 good/normal to 5 no movement): 5.00 (5.0;5.0)
Average phenotype of 25 NEJs with 95% CI, 48 hours ([1]; 48 h, ultrastructure score 1 normal to 6 dead or dissolved): 6.00 (6.0;6.0)
Average motility of 25 NEJs with 95% CI, 72 hours ([1]; 72 h, motility score 1 good/normal to 5 no movement): 5.00 (5.0;5.0)
Average phenotype of 25 NEJs with 95% CI, 72 hours ([1]; 72 h, ultrastructure score 1 normal to 6 dead or dissolved): 6.00 (6.0;6.0)
Activity against NEJs (first screen), in words ([1]; 72 h co-culture): maximal alterations to both phenotype/ultrastructure and motility
Effect on wild strain adult fluke motility, in words ([2]; 72 h): no motility after 72 h
Average motility of 4 parasites with 95% CI at 72 hour time point ([2]; wild strain adult flukes, score 1 good/normal to 6 no movement or dead): 6.00 (6.0;6.0)
Average motility of 2 parasites treated with 4.4 µM, 24 hours ([3]; 4.4 µM, 24 h, immature flukes, dose response, score 1 to 5): 4.00 (4.0;4.0)
Average motility of 2 parasites treated with 4.4 µM, 48 hours ([3]; 4.4 µM, 48 h, immature flukes, dose response, score 1 to 5): 5.00 (5.0; 5.0)
Average motility of 2 parasites treated with 4.4 µM, 72 hours ([3]; 4.4 µM, 72 h, immature flukes, dose response, score 1 to 5): 5.00 (5.0; 5.0)
Average motility of 2 parasites treated with 13.3 µM, 24 hours ([3]; 13.3 µM, 24 h, immature flukes, dose response, score 1 to 5): 4.00 (4.0;4.0)
Average motility of 2 parasites treated with 13.3 µM, 48 hours ([3]; 13.3 µM, 48 h, immature flukes, dose response, score 1 to 5): 5.00 (5.0; 5.0)
Average motility of 2 parasites treated with 13.3 µM, 72 hours ([3]; 13.3 µM, 72 h, immature flukes, dose response, score 1 to 5): 5.00 (5.0; 5.0)
Average motility of 2 parasites treated with 40 µM, 24 hours ([3]; 40 µM, 24 h, immature flukes, dose response, score 1 to 5): 5.00 (5.0;5.0)
Average motility of 4 parasites with 95% CI at 24 hour time point ([3]; 40 µM, 24 h, immature flukes, score 1 normal to 5 no movement or death): 4.75 (4.2;5.2)
Average motility of 2 parasites treated with 40 µM, 48 hours ([3]; 40 µM, 48 h, immature flukes, dose response, score 1 to 5): 5.00 (5.0;5.0)
Average motility of 4 parasites with 95% CI at 48 hour time point ([3]; 40 µM, 48 h, immature flukes, score 1 to 5): 5.00 (5.0;5.0)
Average motility of 2 parasites treated with 40 µM, 72 hours ([3]; 40 µM, 72 h, immature flukes, dose response, score 1 to 5): 5.00 (5.0,5.0)
Average motility of 4 parasites with 95% CI at 72 hour time point ([3]; 40 µM, 72 h, immature flukes, score 1 to 5): 5.00 (5.0;5.0)
Effect on immature fluke motility, in words ([3]; 40 µM, by 72 h): paralyzed the assayed immature flukes
Selectivity Index (SI) on Immature Flukes SI=CC50/EC50, 24 hour ([3]; CC50 in MDBK cells / EC50 immature flukes, 24 h): 44 and 44.37
EC50 ([3]; Fasciola hepatica, immature flukes, motility, 24 h exposure, read-out: EC50 with 95% CI on Immature Flukes (motility), 24 hour): 1.07 µM
Average motility of 3 parasites treated with 4.4 µM, 24 hours ([4]; 4.4 µM, 24 h, adult flukes Italian strain, score 1 to 6): 1.00 (1.0;1.0)
Average motility of 3 parasites treated with 4.4 µM, 48 hours ([4]; 4.4 µM, 48 h, adult flukes Italian strain, score 1 to 6): 2.00 (2.0; 2.0)
Average motility of 3 parasites treated with 4.4 µM, 72 hours ([4]; 4.4 µM, 72 h, adult flukes Italian strain, score 1 to 6): 3.00 (3.0; 3.0)
Effect on adult fluke (Italian strain) movement at lower concentrations, in words ([4]; 13.3 μM and 4.4 μM, after 72 h, compared to DMSO 0.4%): impaired movement
Average motility of 3 parasites treated with 13.3 µM, 24 hours ([4]; 13.3 µM, 24 h, adult flukes Italian strain, score 1 to 6): 3.66 (3.0;4.3)
Average motility of 3 parasites treated with 13.3 µM, 48 hours ([4]; 13.3 µM, 48 h, adult flukes Italian strain, score 1 to 6): 4.00(4.0; 4.0)
Average motility of 3 parasites treated with 13.3 µM, 72 hours ([4]; 13.3 µM, 72 h, adult flukes Italian strain, score 1 to 6): 4.00 (4.0; 4.0)
Average motility of 3 parasites treated with 40 µM, 24 hours ([4]; 40 µM, 24 h, adult flukes Italian strain, score 1 to 6): 5.33 (4.6;5.9)
Average motility of 3 parasites treated with 40 µM, 48 hours ([4]; 40 µM, 48 h, adult flukes Italian strain, score 1 to 6): 5.66 (5.0;6.3)
Average motility of 3 parasites treated with 40 µM, 72 hours ([4]; 40 µM, 72 h, adult flukes Italian strain, score 1 to 6): 5.66 (5.0,6.3)
Selectivity Index (SI) on Adult Flukes SI=CC50/EC50, 72 hour ([4]; CC50 in MDBK cells (24 h) / EC50 adult flukes 72 h): 6.64
Selectivity Index (SI) on Adult Flukes SI=CC50/EC50, 24 hour ([4]; CC50 in MDBK cells / EC50 adult flukes, 24 h): 4 and 3.64
EC50 ([4]; 24 h exposure, read-out: EC50 with 95% CI on Adult Flukes (motility), 24 hour): 13 µM
EC50 ([4]; 72 h, read-out: EC50 with 95% CI on Adult Flukes (motility), 72 hour): 7.15 µM
Effect on adult fluke (Italian strain) movement, in words ([4]; dose response, MC042 statement at 40 μM after 72 h): two out of three adult flukes were completely immobilized
CC50 at 24 h [5]: 47.5 µM
